Like-named read-outs stand apart in the source and are kept apart here.
What was measured:
KDM4C = molecular target: T1, KDM4C (Homo sapiens, UniProt Q9H3R0); test: KDM4C AlphaScreen assay; format: biochemical
T1 construct: Full length of KDM5B and KDM4C protein were purchased from Active Motif; purchased Active Motif 31858
T1 sequence (Q9H3R0 1-1056): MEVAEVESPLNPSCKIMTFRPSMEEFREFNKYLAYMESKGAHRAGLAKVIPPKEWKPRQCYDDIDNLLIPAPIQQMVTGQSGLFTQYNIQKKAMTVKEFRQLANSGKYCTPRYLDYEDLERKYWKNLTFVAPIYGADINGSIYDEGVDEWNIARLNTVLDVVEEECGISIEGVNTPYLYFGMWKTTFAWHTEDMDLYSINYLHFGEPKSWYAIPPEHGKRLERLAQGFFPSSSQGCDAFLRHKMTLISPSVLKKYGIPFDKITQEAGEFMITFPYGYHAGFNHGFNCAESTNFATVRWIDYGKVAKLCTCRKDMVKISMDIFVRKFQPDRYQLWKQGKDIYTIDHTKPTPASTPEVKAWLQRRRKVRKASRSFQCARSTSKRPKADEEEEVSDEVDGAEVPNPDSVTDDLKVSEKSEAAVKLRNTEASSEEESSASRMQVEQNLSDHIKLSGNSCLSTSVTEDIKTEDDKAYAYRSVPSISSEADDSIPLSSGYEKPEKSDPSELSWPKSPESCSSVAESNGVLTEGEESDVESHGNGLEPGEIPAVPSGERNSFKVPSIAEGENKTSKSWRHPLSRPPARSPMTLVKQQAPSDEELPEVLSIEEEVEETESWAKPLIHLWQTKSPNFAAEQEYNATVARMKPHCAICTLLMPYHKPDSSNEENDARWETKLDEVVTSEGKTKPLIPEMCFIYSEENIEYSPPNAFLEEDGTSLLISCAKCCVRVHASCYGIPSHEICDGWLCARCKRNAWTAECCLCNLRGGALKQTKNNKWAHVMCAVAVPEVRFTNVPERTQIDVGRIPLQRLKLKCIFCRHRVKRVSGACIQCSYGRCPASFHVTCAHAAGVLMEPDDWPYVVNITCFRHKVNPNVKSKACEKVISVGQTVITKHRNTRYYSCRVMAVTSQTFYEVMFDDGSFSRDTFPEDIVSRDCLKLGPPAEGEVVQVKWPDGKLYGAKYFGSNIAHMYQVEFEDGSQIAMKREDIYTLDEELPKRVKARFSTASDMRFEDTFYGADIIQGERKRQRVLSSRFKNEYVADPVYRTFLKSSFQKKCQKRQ
Summary of the method: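 Full-length KDM4C (0.2 nM final) was preincubated 15 min at RT with compound in HEPES pH 7.4 with Tween-20, BSA and TCEP. The reaction ran 30 min at RT after adding biotinylated peptide (3 nM final) in buffer with Fe(II), α-ketoglutarate and ascorbate. EDTA-containing AlphaScreen beads stopped it; IC50 was curve-fitted.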

KDM5B = molecular target: T2, KDM5B (Homo sapiens, UniProt Q9UGL1); test: biochemical
T2 construct: Full length of KDM5B and KDM4C protein were purchased from Active Motif; purchased Active Motif 31832
T2 sequence (Q9UGL1 whole entry): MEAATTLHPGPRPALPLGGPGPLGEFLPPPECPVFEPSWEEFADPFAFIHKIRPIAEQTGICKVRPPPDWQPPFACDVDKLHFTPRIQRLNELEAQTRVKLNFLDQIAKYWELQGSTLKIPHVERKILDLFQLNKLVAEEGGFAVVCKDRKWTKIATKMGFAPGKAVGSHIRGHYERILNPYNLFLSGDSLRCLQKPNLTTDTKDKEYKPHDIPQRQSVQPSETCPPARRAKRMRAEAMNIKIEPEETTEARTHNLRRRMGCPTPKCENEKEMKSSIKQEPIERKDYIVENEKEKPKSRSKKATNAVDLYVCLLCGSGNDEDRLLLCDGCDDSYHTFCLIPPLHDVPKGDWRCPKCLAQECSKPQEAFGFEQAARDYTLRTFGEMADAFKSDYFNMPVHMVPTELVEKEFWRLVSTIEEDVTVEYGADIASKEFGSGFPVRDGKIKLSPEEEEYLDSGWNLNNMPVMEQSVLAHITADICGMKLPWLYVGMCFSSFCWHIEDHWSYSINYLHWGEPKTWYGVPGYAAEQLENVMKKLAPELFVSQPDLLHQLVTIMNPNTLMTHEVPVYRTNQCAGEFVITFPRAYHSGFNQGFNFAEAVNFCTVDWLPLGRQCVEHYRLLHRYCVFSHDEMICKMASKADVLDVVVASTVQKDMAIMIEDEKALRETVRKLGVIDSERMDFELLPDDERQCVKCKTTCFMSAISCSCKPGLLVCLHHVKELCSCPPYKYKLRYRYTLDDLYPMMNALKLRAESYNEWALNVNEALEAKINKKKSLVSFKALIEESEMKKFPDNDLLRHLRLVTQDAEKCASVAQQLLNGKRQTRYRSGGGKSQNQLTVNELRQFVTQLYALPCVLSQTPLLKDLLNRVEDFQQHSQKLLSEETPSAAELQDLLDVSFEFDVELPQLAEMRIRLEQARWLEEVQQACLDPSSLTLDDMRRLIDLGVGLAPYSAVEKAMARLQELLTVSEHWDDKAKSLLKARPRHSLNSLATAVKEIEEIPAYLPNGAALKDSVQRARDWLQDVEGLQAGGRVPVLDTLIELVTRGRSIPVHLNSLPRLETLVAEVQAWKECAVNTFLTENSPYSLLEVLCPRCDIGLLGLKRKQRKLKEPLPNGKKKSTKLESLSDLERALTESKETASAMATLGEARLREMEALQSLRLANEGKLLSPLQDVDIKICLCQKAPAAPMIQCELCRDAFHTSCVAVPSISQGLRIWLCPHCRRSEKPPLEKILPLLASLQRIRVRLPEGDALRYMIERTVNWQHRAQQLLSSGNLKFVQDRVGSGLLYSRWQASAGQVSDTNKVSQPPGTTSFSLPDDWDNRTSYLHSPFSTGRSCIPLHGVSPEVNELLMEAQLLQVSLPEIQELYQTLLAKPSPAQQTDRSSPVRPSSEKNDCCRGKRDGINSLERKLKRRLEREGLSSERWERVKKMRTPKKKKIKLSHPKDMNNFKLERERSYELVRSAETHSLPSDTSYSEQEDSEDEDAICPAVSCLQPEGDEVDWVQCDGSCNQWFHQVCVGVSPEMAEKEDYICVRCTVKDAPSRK
Summary of the method: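 KDM5B (0.5 nM final) was preincubated with compound for 15 min at room temperature, then reacted with biotinylated peptide (3 nM final) for 25 min at room temperature.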

[1] = AlphaScreen, full length KDM4C 0.2 nM, biotinylated H3K9Me3 peptide 3 nM, 30 minutes at room temperature
[2] = AlphaScreen, full length KDM5B 0.5 nM, biotinylated H3K4Me3 peptide 3 nM, 25 minutes at room temperature, read-out: KDM5B (IC50)

| Compound | IC50 (KDM4C; [1]) [nM] | IC50 (KDM5B) [nM] | IC50 (KDM5B; [2]) [nM] | IC50 (KDM4C) [nM] |
| --- | --- | --- | --- | --- |
| CC(C)c1c(O)nc(-n2ccnc2)nc1-c1cccnc1 [Example 70, 2-(1H-Imidazol-1-yl)-5-(propan-2-yl)-6-(pyridin-3-yl)pyrimidin-4-ol] | 2660 | 22 |  |  |
| CC(C)c1c(O)nc(-n2ccnc2-c2ccccn2)nc1-c1cnn(C(C)C)c1 [Example 3, 5-(Propan-2-yl)-6-[1-(propan-2-yl)-1H-pyrazol-4-yl]-2-[2-(pyridin-2-yl)-1H-imidazol-1-yl]pyrimidin-4-ol] | 9680 | 372 |  |  |
| CC(C)c1c(O)nc(-n2ccnc2)nc1-c1cccc(CO)c1 [Example 77, 6-[3-(Hydroxymethyl)-phenyl]-2-(1H-imidazol-1-yl)-5-(propan-2-yl)pyrimidin-4-ol] | 2460 | 38 |  |  |
| CC(C)c1c(O)nc(-n2ccnc2)nc1-c1cnn(-c2ccccc2)c1 [Example 71, 2-(1H-Imidazol-1-yl)-6-(1-phenyl-1H-pyrazol-4-yl)-5-(propan-2-yl)pyrimidin-4-ol] | 1560 | 24 |  |  |
| CC(C)c1c(O)nc(-n2ccnc2)nc1-c1cnn(CC(=O)NCCO)c1 [Example 104, 2-{4-[6-Hydroxy-2-(1H-imidazol-1-yl)-5-(propan-2-yl)pyrimidin-4-yl]-1H-pyrazol-1-yl}-N-(2-hydroxy-ethyl)acetamide] | 1380 | 15 |  |  |
| Cc1nc(-n2cnc(CO)c2)nc(O)c1C(C)C [Example 24b, 2-[4-(hydroxymethyl)imidazol-1-yl]-5-isopropyl-6-methyl-pyrimidin-4-ol] | 16800 | 1260 |  |  |
| CC(C)c1c(O)nc(-n2ccnc2)nc1-c1cccc(CN)c1 [Example 41, 6-[3-(Aminomethyl)phenyl]-2-(1H-imidazol-1-yl)-5-(propan-2-yl)pyrimidin-4-ol] | 281 |  | 3 |  |
| CC(C)c1c(O)nc(-n2ccnc2)nc1OCC(=O)N1CCN(C)CC1 [Example 16, 2-{[6-hydroxy-2-(1H-imidazol-1-yl)-5-(propan-2-yl)pyrimidin-4-yl]oxy}-1-(4-methylpiperazin-1-yl)ethan-1-one] |  | 26 |  | 5730 |
| CC(C)c1c(O)nc(-n2ccnc2)nc1-c1cnn(CC2CC2)c1 [Example 52, 6-[1-(Cyclopropylmethyl)-1H-pyrazol-4-yl]-2-(1H-imidazol-1-yl)-5-(propan-2-yl)pyrimidin-4-ol] | 840 | 14 |  |  |
| CC(C)c1c(O)nc(-n2ccnc2)nc1-c1cnn(CC(=O)N2CCN(C)CC2)c1 [Example 99, 2-{4-[6-Hydroxy-2-(1H-imidazol-1-yl)-5-(propan-2-yl)pyrimidin-4-yl]-1H-pyrazol-1-yl}-1-(4-methyl-piperazin-1-yl)ethan-1-one] | 455 |  | 10 |  |
| CC(C)c1c(O)nc(-c2cncs2)nc1OCc1cccnc1 [Example 19, 5-(propan-2-yl)-6-(pyridin-3-ylmethoxy)-2-(1,3-thiazol-5-yl)pyrimidin-4-ol] | 1790 | 91 |  |  |
| Cc1nc(-n2ccnc2N)nc(O)c1C(C)C [Example 23, 2-(2-aminoimidazol-1-yl)-5-isopropyl-6-methyl-pyrimidin-4-ol] | 775 | 24 |  |  |
| CC(C)c1c(O)nc(-n2ccnc2)nc1-c1cnn(C)c1 [Example 55, 2-(1H-Imidazol-1-yl)-6-(1-methyl-1H-pyrazol-4-yl)-5-(propan-2-yl)pyrimidin-4-ol] | 1340 | 15 |  |  |
| CC(C)c1c(O)nc(-n2ccnc2)nc1CCc1cccnc1 [Example 10b, 2-(1H-imidazol-1-yl)-5-(propan-2-yl)-6-[2-(pyridin-3-yl)ethyl]pyrimidin-4-ol] | 1490 | 11 |  |  |
| CC(C)c1c(O)nc(-n2ccnc2)nc1-c1cnn(CC(=O)NCCN(C)C)c1 [Example 91, N-[2-(Dimethylamino)ethyl]-2-{4-[6-hydroxy-2-(1H-imidazol-1-yl)-5-(propan-2-yl)pyrimidin-4-yl]-1H-pyrazol-1-yl}acetamide] | 634 | 5 |  |  |
| CC(C)c1c(O)nc(-n2ccnc2)nc1-c1cccc(C(=O)N2CCOCC2)c1 [Example 82, 2-(1H-Imidazol-1-yl)-6-[3-(morpholine-4-carbonyl)-phenyl]-5-(propan-2-yl)-pyrimidin-4-ol] | 7970 | 73 |  |  |
| CC(C)c1c(O)nc(-n2ccnc2)nc1OCCC1CCN(CCCC(F)(F)F)CC1 [Example 13, 2-(1H-imidazol-1-yl)-5-(propan-2-yl)-6-{2-[1-(4,4,4-trifluorobutyl)piperidin-4-yl]ethoxy}pyrimidin-4-ol] | 1140 | 12 |  |  |

Second part, led by results:

| IC50 (KDM4C; [1]) [nM] | IC50 (KDM5B) [nM] | IC50 (KDM5B; [2]) [nM] | Compound | IC50 (KDM4C) [nM] |
| --- | --- | --- | --- | --- |
| 2320 |  | 14 | CC(=O)N1CCN(CCOc2nc(-n3ccnc3)nc(O)c2C(C)C)CC1 [Example 125, 1-[4-(2-{[6-Hydroxy-2-(1H-imidazol-1-yl)-5-(propan-2-yl)pyrimidin-4-yl]oxy}ethyl)-piperazin-1-yl]ethan-1-one] |  |
| 840 | 15 |  | CC(C)c1c(O)nc(-n2ccnc2)nc1OCC1COCCN1 (stereo not drawn) [Example 126, 2-(1H-Imidazol-1-yl)-6-(morpholin-3-ylmethoxy)-5-(propan-2-yl)pyrimidin-4-ol] |  |
| 3680 |  | 75 | CC(C)c1c(O)nc(-n2ccnc2)nc1OCC1CCOCC1 [Example 139, 2-(1H-Imidazol-1-yl)-6-(oxan-4-ylmethoxy)-5-(propan-2-yl)pyrimidin-4-ol] |  |
| 1590 | 9 |  | CC(C)c1c(O)nc(-n2ccnc2)nc1OCCN1CCOCC1 [Example 123, 2-(1H-Imidazol-1-yl)-6-[2-(morpholin-4-yl)ethoxy]-5-(propan-2-yl)pyrimidin-4-ol] |  |
| 1970 | 31 |  | CC(C)c1c(O)nc(-n2ccnc2)nc1-c1cnn(CC(=O)N2CCOCC2)c1 [Example 117, 2-{4-[6-Hydroxy-2-(1H-imidazol-1-yl)-5-(propan-2-yl)pyrimidin-4-yl]-1H-pyrazol-1-yl}-1-(morpholin-4-yl)ethan-1-one] |  |
| 1200 |  | 10 | CC(C)c1c(O)nc(-n2ccnc2)nc1OCCN1CCNCC1 [Example 124, 2-(1H-Imidazol-1-yl)-6-[2-(piperazin-1-yl)ethoxy]-5-(propan-2-yl)pyrimidin-4-ol] |  |
| 1080 | 17 |  | CC(C)c1c(O)nc(-n2ccnc2)nc1-c1cnn(CC(=O)NCCc2ccccn2)c1 [Example 105, 2-{4-[6-Hydroxy-2-(1H-imidazol-1-yl)-5-(propan-2-yl)pyrimidin-4-yl]-1H-pyrazol-1-yl}-N-[2-(pyridin-2-yl)ethyl]acetamide] |  |
| 2410 | 30 |  | CC(C)c1c(O)nc(-n2ccnc2)nc1OCCN1CCCC1=O [Example 132, 1-(2-{[6-Hydroxy-2-(1H-imidazol-1-yl)-5-(propan-2-yl)pyrimidin-4-yl]oxy}ethyl)-pyrrolidin-2-one] |  |
| 5820 |  | 805 | CC(C)c1cnc(-c2cncs2)nc1O [Example 157, 5-(Propan-2-yl)-2-(1,3-thiazol-5-yl)-pyrimidin-4-ol] |  |
| 1250 | 21 |  | CC(C)c1c(O)nc(-n2ccnc2)nc1-c1cnn(CC(=O)N2CCC(C#N)CC2)c1 [Example 110, 1-(2-{4-[6-Hydroxy-2-(1H-imidazol-1-yl)-5-(propan-2-yl)pyrimidin-4-yl]-1H-pyrazol-1-yl}acetyl)-piperidine-4-carbonitrile] |  |

— patent US20190135793A1, “HETEROCYCLIC INHIBITORS OF KDM5 FOR THE TREATMENT OF DISEASE” (Board of Regents, The University of Texas System, priority 2017, published 2019)
